Measured values from ChEMBL document CHEMBL2440076, “New triarylpyrazoles as broad-spectrum anticancer agents: design, synthesis, and biological evaluation” (Eur J Med Chem, 2013).

How the values were obtained:
Type in all cases: functional
[1] = tested on: OVCAR-5; test: Growth inhibition of human OVCAR5 cells assessed as cell growth at 10^-7 M after 48 hrs by sulforhodamine B assay; conditions: OVCAR-5, 48 h, read-out: Activity
[2] = tested on: SK-OV-3; test: Growth inhibition of human SKOV3 cells assessed as cell growth at 10^-5 M after 48 hrs by sulforhodamine B assay; conditions: SK-OV-3, 48 h, read-out: Activity
[3] = tested on: K562; test: Growth inhibition of human K562 cells assessed as cell growth at 10^-5 M after 48 hrs by sulforhodamine B assay; conditions: K562, 48 h, read-out: Activity
[4] = tested on: SF-295; test: Growth inhibition of human SF295 cells assessed as cell growth at 10^-4 M after 48 hrs by sulforhodamine B assay; conditions: SF-295, 48 h, read-out: Activity
[5] = tested on: A549; test: Growth inhibition of human A549/ATCC cells assessed as cell growth at 10^-4 M after 48 hrs by sulforhodamine B assay; conditions: A549, 48 h, read-out: Activity
[6] = tested on: RPMI-8226; test: Growth inhibition of human RPMI8226 cells assessed as cell growth at 10^-5 M after 48 hrs by sulforhodamine B assay; conditions: RPMI-8226, 48 h, read-out: Activity
[7] = tested on: SK-MEL-2; test: Growth inhibition of human SK-MEL-2 cells assessed as cell growth at 10^-5 M after 48 hrs by sulforhodamine B assay; conditions: SK-MEL-2, 48 h, read-out: Activity
[8] = tested on: HCT-15; test: Growth inhibition of human HCT15 cells assessed as cell growth at 10^-8 M after 48 hrs by sulforhodamine B assay; conditions: HCT-15, 48 h, read-out: Activity
[9] = tested on: OVCAR-3; test: Growth inhibition of human OVCAR3 cells assessed as cell growth at 10^-7 M after 48 hrs by sulforhodamine B assay; conditions: OVCAR-3, 48 h, read-out: Activity
[10] = tested on: UACC-257; test: Growth inhibition of human UACC257 cells assessed as cell growth at 10^-5 M after 48 hrs by sulforhodamine B assay; conditions: UACC-257, 48 h, read-out: Activity
[11] = tested on: SK-OV-3; test: Growth inhibition of human SKOV3 cells assessed as cell growth at 10^-6 M after 48 hrs by sulforhodamine B assay; conditions: SK-OV-3, 48 h, read-out: Activity
[12] = tested on: OVCAR-8; test: Growth inhibition of human OVCAR8 cells assessed as cell growth at 10^-5 M after 48 hrs by sulforhodamine B assay; conditions: OVCAR-8, 48 h, read-out: Activity
[13] = tested on: HCT-116; test: Growth inhibition of human HCT116 cells assessed as cell growth at 10^-5 M after 48 hrs by sulforhodamine B assay; conditions: HCT-116, 48 h, read-out: Activity
[14] = tested on: SW-620; test: Growth inhibition of human SW620 cells assessed as cell growth at 10^-5 M after 48 hrs by sulforhodamine B assay; conditions: SW-620, 48 h, read-out: Activity
[15] = tested on: SF-539; test: Growth inhibition of human SF539 cells assessed as cell growth at 10^-5 M after 48 hrs by sulforhodamine B assay; conditions: SF-539, 48 h, read-out: Activity
[16] = tested on: RPMI-8226; test: Growth inhibition of human RPMI8226 cells assessed as cell growth at 10^-8 M after 48 hrs by sulforhodamine B assay; conditions: RPMI-8226, 48 h, read-out: Activity
[17] = tested on: SF-539; test: Growth inhibition of human SF539 cells assessed as cell growth at 10^-6 M after 48 hrs by sulforhodamine B assay; conditions: SF-539, 48 h, read-out: Activity
[18] = tested on: HT-29; test: Growth inhibition of human HT-29 cells assessed as cell growth at 10^-4 M after 48 hrs by sulforhodamine B assay; conditions: HT-29, 48 h, read-out: Activity
[19] = tested on: TK-10; test: Growth inhibition of human TK10 cells assessed as cell growth at 10^-8 M after 48 hrs by sulforhodamine B assay; conditions: TK-10, 48 h, read-out: Activity
[20] = tested on: HOP-92; test: Growth inhibition of human HOP92 cells assessed as cell growth at 10^-8 M after 48 hrs by sulforhodamine B assay; conditions: HOP-92, 48 h, read-out: Activity
[21] = tested on: UO-31; test: Growth inhibition of human UO31 cells assessed as cell growth at 10^-8 M after 48 hrs by sulforhodamine B assay; conditions: UO-31, 48 h, read-out: Activity
[22] = tested on: U-251; test: Growth inhibition of human U251 cells assessed as cell growth at 10^-7 M after 48 hrs by sulforhodamine B assay; conditions: U-251, 48 h, read-out: Activity
[23] = tested on: TK-10; test: Growth inhibition of human TK10 cells assessed as cell growth at 10^-5 M after 48 hrs by sulforhodamine B assay; conditions: TK-10, 48 h, read-out: Activity
[24] = tested on: M14; test: Growth inhibition of human M14 cells assessed as cell growth at 10^-8 M after 48 hrs by sulforhodamine B assay; conditions: M14, 48 h, read-out: Activity
[25] = tested on: RPMI-8226; test: Growth inhibition of human RPMI8226 cells assessed as cell growth at 10^-4 M after 48 hrs by sulforhodamine B assay; conditions: RPMI-8226, 48 h, read-out: Activity
[26] = tested on: MOLT-4; test: Growth inhibition of human MOLT4 cells assessed as cell growth at 10^-5 M after 48 hrs by sulforhodamine B assay; conditions: MOLT-4, 48 h, read-out: Activity
[27] = tested on: HL-60(TB); test: Growth inhibition of human HL-60(TB) cells assessed as cell growth at 10^-6 M after 48 hrs by sulforhodamine B assay; conditions: HL-60, 48 h, read-out: Activity
[28] = tested on: LOX IMVI; test: Growth inhibition of human LOXIMVI cells assessed as cell growth at 10^-8 M after 48 hrs by sulforhodamine B assay; conditions: read-out: Activity
[29] = tested on: HOP-92; test: Growth inhibition of human HOP92 cells assessed as cell growth at 10^-4 M after 48 hrs by sulforhodamine B assay; conditions: HOP-92, 48 h, read-out: Activity
[30] = tested on: 786-0; test: Growth inhibition of human 786-0 cells assessed as cell growth at 10^-6 M after 48 hrs by sulforhodamine B assay; conditions: 786-0, 48 h, read-out: Activity
[31] = tested on: KM12; test: Growth inhibition of human KM12 cells assessed as cell growth at 10^-4 M after 48 hrs by sulforhodamine B assay; conditions: KM12, 48 h, read-out: Activity
[32] = tested on: HOP-62; test: Growth inhibition of human HOP62 cells assessed as cell growth at 10^-4 M after 48 hrs by sulforhodamine B assay; conditions: HOP-62, 48 h, read-out: Activity
[33] = tested on: CAKI-1; test: Growth inhibition of human CAKI-1 cells assessed as cell growth at 10^-6 M after 48 hrs by sulforhodamine B assay; conditions: CAKI-1, 48 h, read-out: Activity
[34] = tested on: RPMI-8226; test: Growth inhibition of human RPMI8226 cells assessed as cell growth at 10^-6 M after 48 hrs by sulforhodamine B assay; conditions: RPMI-8226, 48 h, read-out: Activity
[35] = tested on: SF-295; test: Growth inhibition of human SF295 cells assessed as cell growth at 10^-5 M after 48 hrs by sulforhodamine B assay; conditions: SF-295, 48 h, read-out: Activity
[36] = Growth inhibition of human HCC2998 cells assessed as cell growth at 10^-6 M after 48 hrs by sulforhodamine B assay; conditions: HCC 2998, 48 h, read-out: Activity
[37] = tested on: SK-OV-3; test: Growth inhibition of human SKOV3 cells assessed as cell growth at 10^-7 M after 48 hrs by sulforhodamine B assay; conditions: SK-OV-3, 48 h, read-out: Activity

COc1cc(-c2nn(-c3cccc(NC(=O)c4ccccc4)c3)cc2-c2ccncc2)ccc1Cl
growth at 0.1 µM [1]: 93%
growth at 10 µM [2]: 31%
growth at 10 µM [3]: 10%
growth at 100 µM [4]: -46%
growth at 100 µM [5]: 6%
growth at 10 µM [6]: 10%
growth at 10 µM [7]: -10%
growth at 0.01 µM [8]: 97%
growth at 0.1 µM [9]: 101%
growth at 10 µM [10]: 29%
growth at 1 µM [11]: 51%
growth at 10 µM [12]: 58%
growth at 10 µM [13]: 17%
growth at 10 µM [14]: 23%
growth at 10 µM [15]: -25%
growth at 0.01 µM [16]: 102%
growth at 1 µM [17]: 21%
growth at 100 µM [18]: 4%
growth at 0.01 µM [19]: 93%
growth at 0.01 µM [20]: 93%
growth at 0.01 µM [21]: 92%
growth at 0.1 µM [22]: 98%
growth at 10 µM [23]: 45%
growth at 0.01 µM [24]: 95%
growth at 100 µM [25]: 21%
growth at 10 µM [26]: 18%
growth at 1 µM [27]: 27%
growth at 0.01 µM [28]: 94%
growth at 100 µM [29]: -15%
growth at 1 µM [30]: 56%
growth at 100 µM [31]: 6%
growth at 100 µM [32]: 31%
growth at 1 µM [33]: 52%
growth at 1 µM [34]: 46%
growth at 10 µM [35]: -27%
growth at 1 µM [36]: 75%
growth at 0.1 µM [37]: 95%

COc1cc(-c2nn(-c3cccc(NC(=O)c4ccc(N5CCOCC5)c(C(F)(F)F)c4)c3)cc2-c2ccncc2)ccc1Cl
growth at 0.1 µM [1]: 93%
growth at 10 µM [2]: -11%
growth at 10 µM [3]: 2%
growth at 100 µM [4]: -72%
growth at 100 µM [5]: 4%
growth at 10 µM [6]: 6%
growth at 10 µM [7]: -2%
growth at 0.01 µM [8]: 98%
growth at 0.1 µM [9]: 76%
growth at 10 µM [10]: -5%
growth at 1 µM [11]: 24%
growth at 10 µM [12]: 3%
growth at 10 µM [13]: 8%
growth at 10 µM [14]: 17%
growth at 10 µM [15]: -54%
growth at 0.01 µM [16]: 102%
growth at 1 µM [17]: -30%
growth at 100 µM [18]: -43%
growth at 0.01 µM [19]: 99%
growth at 0.01 µM [20]: 70%
growth at 0.01 µM [21]: 91%
growth at 0.1 µM [22]: 88%
growth at 10 µM [23]: 14%
growth at 0.01 µM [24]: 98%
growth at 100 µM [25]: 6%
growth at 10 µM [26]: 9%
growth at 1 µM [27]: 24%
growth at 0.01 µM [28]: 98%
growth at 100 µM [29]: -30%
growth at 1 µM [30]: 45%
growth at 100 µM [31]: -12%
growth at 100 µM [32]: 9%
growth at 1 µM [33]: 21%
growth at 1 µM [34]: 16%
growth at 10 µM [35]: -64%
growth at 1 µM [36]: 52%
growth at 0.1 µM [37]: 80%
